What was measured:
satellite stem cells = experiment: EDL myofiber culture, satellite stem cell divisions (Myf5-Cre/R26R-eYFP, wild type); type: cell-based, mouse; conditions: for Average number of asymmetric divisons/fiber / Proportion of YFP- divisions that are asymmetric divisions: WT myofibers, 42 h of culture
Protocol: EGFR Signaling Regulates Asymmetric Satellite Stem Cell Divisions. To assess the role of EGFR in asymmetric division, the inventors cultured satellite cells in myofibers isolated from Extensor digitorum longus (EDL) muscles from Myf5-Cre/R26R-eYFP mice and performed both loss-of-function and gain-of-function experiments. Isolated myofibers were first cultured for 42 h with and without treatment with the Lapatinib, a specific inhibitor of EGFR signaling.
(§1) EDL fiber Culture and siRNA Transfection. Myofiber culture was performed as described in Dumont, N. A., et al. “Dystrophin expression in muscle stem cells regulates their polarity and asymmetric division.” Nat. Med. (2015) 21:1455-63, which is incorporated herein by reference. Briefly, EDL were carefully dissected and incubated in DMEM with 2% L-glutamine, 4.5% glucose, and 110 mg/mL sodium pyruvate (Gibco) containing 0.2% collagenase I (Sigma) for 45 min. Myofibers were isolated using gentle trituration with a glass pipet. Myofibers were cultured for 36, 42, or 72 h in DMEM containing 20% FBS (Wisent), 1% chick embryo extract (MP Biomedicals), and 2.5 ng/ml bFGF (Cedarlane). For pharmacological inhibition, Lapatinib ditosylate (1 mM in DMSO; Santa
(§2) Cruz Biotechnology), PTP1b inhibitor CAS 765317-72-4 (10 mM in DMSO; Santa Cruz Biotechnologies) was added to the culture medium for a final concentration of 1 μM or 10 μM, respectively; equal dilution of DMSO was used as vehicle control.
Transfection of satellite cells on myofibers was performed using lipofectamine RNAimax (Life Technologies) and validated Smartpool siRNAs for EGFR, Aurka, or scramble (SCR) (Dharmacon). Two transfections were performed at 4 h and 16 h after isolation of the myofibers as described in Le Grand, et al. (2009) Wnt7a activates the planar cell polarity pathway to drive the symmetric expansion of satellite stem cells. Cell Stem Cell 4, pp 535-547, which is incorporated herein by reference. Knockdown efficiencies of the siRNA were validated in myoblasts by western blot and qRT-PCR.

[1] = system: dystrophin-deficient satellite stem cells; experiment: EDL myofiber culture, satellite stem cell divisions (mdx Myf5-Cre/R26R-eYFP); type: cell-based, mouse; conditions: for Average number of asymmetric divisons/fiber / Proportion of YFP- divisions that are asymmetric divisions: mdx myofibers, 42 h of culture
Protocol: as §1, §2

[2] = system: regenerating mdx TA muscles; experiment: Cardiotoxin-induced injury of TA muscle in mdx mice, intramuscular treatment; type: in vivo, mouse
Source text: Previously, the inventors observed that dystrophin- or Dag1-deficient muscles generate reduced numbers of Pax7-expressing and Myog-expressing cells following CTX-injury.
PTP1b inhibitor was concurrently administered with cardiotoxin into mdx TA muscles and supplemented again 2 days after the injury (FIG. 13A). To assess the muscle stem cell function after injury and the regenerative capacity of the treated mdx muscles, the inventors examined the histology of the regenerating muscles 10 days post cardiotoxin injection. Whereas the control vehicle treated muscles still contained large areas of necrotic fibers (msIgG+), the muscles treated with PTP1b inhibitors were better regenerated as evidenced by the presence of 50% […] Myh3-expressing myofibers (FIG. 13B). […] These findings are consistent with PTP1b inhibition inducing an increase in EGFR signaling and accelerated de novo myofiber formation in regenerating mdx muscles (FIG. 14).
Electroporation and Cardiotoxin Injury. Intramuscular (i.m.) cardiotoxin injections (Latoxan, 50 μl of 10 μM solution in saline) were injected directly into the right TA muscle through the skin under general anesthesia. For pharmacological inhibition, Lapatinib ditosylate (1 mM in DMSO; Santa Cruz Biotechnology), the PTP1b inhibitor CAS 765317-72-4 (10 mM in DMSO; Santa Cruz Biotechnologies) was mixed into the cardiotoxin solution for a final concentration of 1 μM or 20 μM, respectively; equal dilution of DMSO was used as vehicle control. Supplemental injection of inhibitors (20 μL of 2.5 μM of Lapatibin or 50 μM of PTP1b inhibitor diluted in saline) was performed 2 days after cardiotoxin injection.
Muscle samples were embedded in OCT embedding compound and frozen in liquid nitrogen cooled isopentane and cryosectioned in 12-μm slices. Cross-sections were washed once with PBS and fixed in 2% PFA 10 min, permeabilized with 0.1% Triton X-100/0.15 M Glycine/PBS for 10 min and extensively washed with PBS. Samples were blocked using M.O.M. Blocking reagent (Vector) for 2 h followed by additional blocking in 5% NGS/2% BSA at 4° C. over night. Primary antibodies were applied in blocking at 4° C. over night. Samples were washed extensively in PBS and secondary antibodies were applied in PBS (Alexa Flour 546, 647) for 1 h at room temperature. Following PBS washes, cross-sections were counterstained with DAPI ([…]) for 10 min and mounted with Permaflour (Fisher).
Histological Analysis of Muscle Sections. For Fiber type analysis, non-fixed samples were washed with PBS and blocked in 10% normal goat serum (NGS) for 1 hr at room temperature. Primary antibodies were applied in 10% NGS for 2 h at room temperature. Sections were washed extensively with PBS and secondary antibodies were applied in PBS for 1 h at room temperature. Following PBS washes, sections were counterstained with DAPI for 10 min and mounted with Permaflour. Antibodies were as follows: mouse anti-MyH3 (clone F1.652, DSHB), mouse anti-MyH4 (clone BF-F3, DSHB).
For analysis of myofiber Feret's diameter, non-fixed samples were washed with PBS and stained with Wheat Germ Agglutinin Alexa 647 conjugate (Fisher) for 1 h at room temperature. Samples were washed once with PBS and counterstained with DAPI. Samples were washed with PBS and mounted with Permaflour. Images were taken immediately following staining. Minimum fiber Feret measurement was performed using the SMASH software in MATLAB 2015a as described in Smith, L. R., and Barton, E. R. (2014) SMASH—semi-automatic muscle analysis using segmentation of histology: a MATLAB application. Skelet. Muscle 4, 21, which is incorporated herein by reference. Samples with significant staining artifacts were excluded from automated analyses.

[3] = 42 h culture, recombinant EGF vs vehicle, FIG. 4A

Row | Compound | Average number of asymmetric divisons/fiber (satellite stem cells) | Proportion of YFP- divisions that are asymmetric divisions (satellite stem cells) | Average number of asymmetric divisons/fiber [1] | Proportion of YFP- divisions that are asymmetric divisions [1] | fewer Myh3-expressing myofibers vs vehicle ([2]; PTP1b inhibitor with cardiotoxin and again 2 days after, 10 days post injection, FIG. 13B) | increase in muscle mass compared to vehicle treated controls ([2]; PTP1b inhibitor, 10 days post cardiotoxin, FIG. 13C) | numbers of satellite cells (Pax7+) ([2]; PTP1b inhibitor, 10 days post cardiotoxin, FIG. 13F) | increase on average in Feret's diameters of myofibers compared to control muscles ([2]; PTP1b inhibitor, 10 days post cardiotoxin, FIGS. 13D and E) | increase in the rate of asymmetric satellite stem cell division (satellite stem cells; 42 h culture, recombinant EGF 100 ng/mL vs vehicle, FIG. 2A) | increase in asymmetric division, WT satellite cells (satellite stem cells; [3]) | increase in the rate of asymmetric division, mdx satellite cells [1, 3] | increase in the absolute number of asymmetric satellite stem cell divisions, mdx ([1]; 42 h of myofiber culture, FIG. 4B) | increase in Pax7-expressing cells ([2]; 10 ng recombinant EGF IM at CTX injury and 2 d after, 10 days post injury, FIG. 5B) | increase in the numbers of Myog-expressing cells ([2]; 10 ng recombinant EGF IM at CTX injury and 2 d after, 10 days post injury, FIG. 5C) | Feret's diameter of regenerating myofibers ([2]; EGF-treated vs vehicle-injected controls, 10 days post injury)
1 | CCc1oc2cc(S(=O)(=O)Nc3ccc(S(=O)(=O)Nc4nccs4)cc3)ccc2c1C(=O)c1cc(Br)c(O)c(Br)c1 [PTP1b inhibitor, 3-(3,5-dibromo-4-hydroxy-benzoyl)-2-ethyl-benzofuran-6-sulfonicacid-(4-(thiazol-2-ylsulfamyl)-phenyl)-amide, reference compound] | 0.988 | 66.70% | 0.463 | 33.33% | 50% | 14% | increased numbers of satellite cells | 2 fold | – | – | – | – | – | – | –
2 | EGF: human recombinant EGF protein (Life Technologies), direct activator of the EGFR pathway | 0.939 | 70.86% | 0.436 | 34.60% | – | – | – | – | 2.5 fold | 29% | 67% | 2 fold | 26% | 50% | an increase in Feret's diameter

— patent publication US20230114123A1, “METHOD OF STIMULATING ASYMMETRIC DIVISION OF SATELLITE STEM CELLS” (Ottawa Hospital Research Institute, priority 2017, published 2023)
